Measured values: paper PMC8086157, “Cryo-EM structure of a thermostable bacterial nanocompartment” (IUCrJ, 2021)

Molecular target: T1, T. maritima encapsulin (TmEnc) (Thermotoga maritima, UniProt Q9WZP2)
T1 construct: gene enc; codon-optimized gene in pET-11a, E. coli Rosetta2 (DE3); no tag mentioned; icosahedral shell without cargo protein; flavin site formed by three subunits
T1 sequence (Q9WZP2 1-265): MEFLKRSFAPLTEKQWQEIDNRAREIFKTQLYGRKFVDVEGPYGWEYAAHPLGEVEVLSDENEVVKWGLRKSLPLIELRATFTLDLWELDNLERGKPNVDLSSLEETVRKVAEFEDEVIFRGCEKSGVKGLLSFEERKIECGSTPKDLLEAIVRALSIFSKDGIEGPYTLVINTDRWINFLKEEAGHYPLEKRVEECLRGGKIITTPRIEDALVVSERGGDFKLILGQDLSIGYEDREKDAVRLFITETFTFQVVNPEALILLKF
Assay: cryo-EM structure ([…] Å)
Assay type: binding
Conditions: co-purified from E. coli lysate through 80°C step; exact flavin identity ambiguous, FMN modelled; exterior site near threefold axis, stacks on Trp87; Tris pH 8.0, 150 mM NaCl

Cc1cc2nc3c(=O)[nH]c(=O)nc-3n(C[C@H](O)[C@H](O)[C@H](O)COP(=O)(O)O)c2cc1C [flavin mononucleotide]
cryo-EM structure (2.0 Å): flavin mononucleotide (FMN) seems to be consistent with the density and has been modeled
